Activity calls are given as the source filed them. The rule behind the calls is not given here.
Assays:
[1] = tested on: MDA-MB-231; assay: Induction of apoptosis in human MDA-MB-231 cells assessed as early apoptotic cells at 33.3 nM incubated for 48 hrs by Annexin V-PE staining based flow cytometric analysis (reference value: 3.95 to 3.74%); assay type: functional
[2] = tested on: MDA-MB-231; assay: Induction of cell cycle arrest in human MDA-MB-231 cells assessed as accumulation of cell at G2/M phase at 300 nM incubated for 24 hrs by PI staining based flow cytometric analysis (reference value: 24.34 to 24.44%); assay type: functional
[3] = tested on: MDA-MB-231; assay: Induction of apoptosis in human MDA-MB-231 cells assessed as downregulation of caspase-9 expression at 100 to 300 nM by Western blot analysis; assay type: functional, cell-based; conditions: dose 100-300 nM
[4] = tested on: MDA-MB-231; assay: Induction of apoptosis in human MDA-MB-231 cells assessed as late apoptotic cells at 300 nM incubated for 48 hrs by Annexin V-PE staining based flow cytometric analysis (reference value: 0.32 to 0.82%); assay type: functional
[5] = tested on: MDA-MB-231; assay: Inhibition of cell invasion in human MDA-MB-231 cells at 3.7 to 100 nM incubated for 18 hrs by transwell assay; assay type: functional, cell-based; conditions: dose 3.7-100 nM
[6] = tested on: MDA-MB-453; assay: Antiproliferative activity against human MDA-MB-453 cells assessed as inhibition of cell growth incubated for 72 hrs by CCK8 assay; assay type: functional, cell-based; conditions: MDA-MB-453, 72 h
[7] = tested on: MDA-MB-231; assay: Induction of cell cycle arrest in human MDA-MB-231 cells assessed as decrease in CDK2 level at 100 to 300 nM by Western blot analysis; assay type: functional, cell-based; conditions: dose 100-300 nM
[8] = tested on: MDA-MB-231; assay: Induction of cell cycle arrest in human MDA-MB-231 cells assessed as S phase cells at 33.3 nM incubated for 24 hrs by PI staining based flow cytometric analysis (reference value: 9.64 to 10.79%); assay type: functional
[9] = tested on: MDA-MB-231; assay: Induction of apoptosis in human MDA-MB-231 cells assessed as necrotic cells at 100 nM incubated for 48 hrs by Annexin V-PE staining based flow cytometric analysis (reference value: 2.64 to 3.23%); assay type: functional
[10] = tested on: MDA-MB-231; assay: Induction of apoptosis in human MDA-MB-231 cells assessed as early apoptotic cells at 300 nM incubated for 48 hrs by Annexin V-PE staining based flow cytometric analysis (reference value: 3.95 to 3.74%); assay type: functional
[11] = tested on: MDA-MB-231; assay: Induction of apoptosis in human MDA-MB-231 cells assessed as upregulation of cleaved PARP expression at 100 to 300 nM by Western blot analysis; assay type: functional, cell-based; conditions: dose 100-300 nM
[12] = tested on: MDA-MB-231; assay: Induction of apoptosis in human MDA-MB-231 cells assessed as viable cells at 300 nM incubated for 48 hrs by Annexin V-PE staining based flow cytometric analysis (reference value: 92.59 to 92.71%); assay type: functional; conditions: read-out: Activity
[13] = tested on: MDA-MB-231; assay: Induction of apoptosis in human MDA-MB-231 cells assessed as late apoptotic cells at 33.3 nM incubated for 48 hrs by Annexin V-PE staining based flow cytometric analysis (reference value: 0.32 to 0.82%); assay type: functional
[14] = tested on: MDA-MB-231; assay: Induction of apoptosis in human MDA-MB-231 cells assessed as viable cells at 100 nM incubated for 48 hrs by Annexin V-PE staining based flow cytometric analysis (reference value: 92.59 to 92.71%); assay type: functional; conditions: read-out: Activity
[15] = target: Serine/threonine-protein kinase AKT (Homo sapiens) (UniProt P31751+Q9Y243+P31749); assay: Inhibition of AKT phosphorylation in human MDA-MB-231 at 1.2 to 100 nM incubated for 18 hrs by Western blot analysis; assay type: cell-based; conditions: dose 1.2-100 nM
Serine/threonine-protein kinase AKT (Homo sapiens), sequence (P31749 whole entry, looked up): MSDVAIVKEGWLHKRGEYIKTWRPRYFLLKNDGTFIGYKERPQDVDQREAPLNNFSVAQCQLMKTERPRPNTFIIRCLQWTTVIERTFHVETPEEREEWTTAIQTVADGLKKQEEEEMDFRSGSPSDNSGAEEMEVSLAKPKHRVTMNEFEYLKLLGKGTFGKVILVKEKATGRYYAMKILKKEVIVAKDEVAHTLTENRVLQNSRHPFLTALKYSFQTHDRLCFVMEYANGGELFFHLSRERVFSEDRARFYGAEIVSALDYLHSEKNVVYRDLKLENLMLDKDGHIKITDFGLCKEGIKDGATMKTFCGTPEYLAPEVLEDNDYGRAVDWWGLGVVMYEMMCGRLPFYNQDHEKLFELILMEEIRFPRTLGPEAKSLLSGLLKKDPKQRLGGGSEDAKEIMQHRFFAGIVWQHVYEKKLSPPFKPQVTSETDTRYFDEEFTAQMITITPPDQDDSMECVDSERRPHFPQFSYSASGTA
Serine/threonine-protein kinase AKT (Homo sapiens), sequence (P31751 whole entry, looked up): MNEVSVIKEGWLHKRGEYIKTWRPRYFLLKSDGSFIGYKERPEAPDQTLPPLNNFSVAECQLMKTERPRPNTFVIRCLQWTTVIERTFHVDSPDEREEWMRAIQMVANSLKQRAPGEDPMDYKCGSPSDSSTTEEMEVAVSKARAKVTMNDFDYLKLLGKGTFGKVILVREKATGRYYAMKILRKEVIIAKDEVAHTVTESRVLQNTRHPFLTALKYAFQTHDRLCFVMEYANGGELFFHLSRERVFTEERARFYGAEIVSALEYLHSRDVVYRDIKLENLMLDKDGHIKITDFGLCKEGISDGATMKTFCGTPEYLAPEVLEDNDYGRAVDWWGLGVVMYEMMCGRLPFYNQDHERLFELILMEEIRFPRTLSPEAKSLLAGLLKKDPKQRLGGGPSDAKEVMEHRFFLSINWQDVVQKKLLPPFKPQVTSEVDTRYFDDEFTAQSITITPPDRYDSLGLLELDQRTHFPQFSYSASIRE
Serine/threonine-protein kinase AKT (Homo sapiens), sequence (Q9Y243 whole entry, looked up): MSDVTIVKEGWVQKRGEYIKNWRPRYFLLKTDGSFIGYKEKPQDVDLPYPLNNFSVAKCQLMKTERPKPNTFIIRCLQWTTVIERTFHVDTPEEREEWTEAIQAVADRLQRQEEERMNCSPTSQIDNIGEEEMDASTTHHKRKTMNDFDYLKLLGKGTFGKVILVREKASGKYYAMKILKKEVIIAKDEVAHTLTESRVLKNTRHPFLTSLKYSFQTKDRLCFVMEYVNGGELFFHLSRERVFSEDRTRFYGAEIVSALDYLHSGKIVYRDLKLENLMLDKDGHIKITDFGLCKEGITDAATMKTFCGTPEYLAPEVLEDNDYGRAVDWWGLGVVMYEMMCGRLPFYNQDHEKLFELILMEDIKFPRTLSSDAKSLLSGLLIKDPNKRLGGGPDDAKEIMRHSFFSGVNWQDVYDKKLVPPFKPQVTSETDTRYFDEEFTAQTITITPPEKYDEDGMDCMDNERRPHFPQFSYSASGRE

[16] = tested on: MDA-MB-231; assay: Induction of cell cycle arrest in human MDA-MB-231 cells assessed as S phase cells at 300 nM incubated for 24 hrs by PI staining based flow cytometric analysis (reference value: 9.64 to 10.79%); assay type: functional
[17] = tested on: MDA-MB-231; assay: Induction of cell cycle arrest in human MDA-MB-231 cells assessed as accumulation of cell at G2/M phase at 33.3 nM incubated for 24 hrs by PI staining based flow cytometric analysis (reference value: 24.34 to 24.44%); assay type: functional
[18] = tested on: MDA-MB-231; assay: Induction of apoptosis in human MDA-MB-231 cells assessed as early apoptotic cells at 100 nM incubated for 48 hrs by Annexin V-PE staining based flow cytometric analysis (reference value: 3.95 to 3.74%); assay type: functional
[19] = tested on: MDA-MB-231; assay: Induction of cell cycle arrest in human MDA-MB-231 cells assessed as G0/G1 phase cells at 300 nM incubated for 24 hrs by PI staining based flow cytometric analysis (reference value: 63.32 to 64.94%); assay type: functional
[20] = tested on: MDA-MB-231; assay: Induction of apoptosis in human MDA-MB-231 cells assessed as viable cells at 33.3 nM incubated for 48 hrs by Annexin V-PE staining based flow cytometric analysis (reference value: 92.59 to 92.71%); assay type: functional; conditions: read-out: Activity
[21] = tested on: MDA-MB-436; assay: Antiproliferative activity against human MDA-MB-436 cells expressing AXL assessed as inhibition of cell growth incubated for 72 hrs by CCK8 assay; assay type: functional, cell-based; conditions: MDA-MB-436, 72 h
[22] = tested on: MDA-MB-231; assay: Induction of cell cycle arrest in human MDA-MB-231 cells assessed as decrease in cyclin B1 level at 100 to 300 nM by Western blot analysis; assay type: functional, cell-based; conditions: dose 100-300 nM
[23] = tested on: MDA-MB-231; assay: Induction of apoptosis in human MDA-MB-231 cells assessed as necrotic cells at 33.3 nM incubated for 48 hrs by Annexin V-PE staining based flow cytometric analysis (reference value: 2.64 to 3.23%); assay type: functional
[24] = target: ALK tyrosine kinase receptor (Homo sapiens, UniProt Q9UM73); assay: Inhibition of ALK (unknown origin)
ALK tyrosine kinase receptor, sequence (Q9UM73 whole entry): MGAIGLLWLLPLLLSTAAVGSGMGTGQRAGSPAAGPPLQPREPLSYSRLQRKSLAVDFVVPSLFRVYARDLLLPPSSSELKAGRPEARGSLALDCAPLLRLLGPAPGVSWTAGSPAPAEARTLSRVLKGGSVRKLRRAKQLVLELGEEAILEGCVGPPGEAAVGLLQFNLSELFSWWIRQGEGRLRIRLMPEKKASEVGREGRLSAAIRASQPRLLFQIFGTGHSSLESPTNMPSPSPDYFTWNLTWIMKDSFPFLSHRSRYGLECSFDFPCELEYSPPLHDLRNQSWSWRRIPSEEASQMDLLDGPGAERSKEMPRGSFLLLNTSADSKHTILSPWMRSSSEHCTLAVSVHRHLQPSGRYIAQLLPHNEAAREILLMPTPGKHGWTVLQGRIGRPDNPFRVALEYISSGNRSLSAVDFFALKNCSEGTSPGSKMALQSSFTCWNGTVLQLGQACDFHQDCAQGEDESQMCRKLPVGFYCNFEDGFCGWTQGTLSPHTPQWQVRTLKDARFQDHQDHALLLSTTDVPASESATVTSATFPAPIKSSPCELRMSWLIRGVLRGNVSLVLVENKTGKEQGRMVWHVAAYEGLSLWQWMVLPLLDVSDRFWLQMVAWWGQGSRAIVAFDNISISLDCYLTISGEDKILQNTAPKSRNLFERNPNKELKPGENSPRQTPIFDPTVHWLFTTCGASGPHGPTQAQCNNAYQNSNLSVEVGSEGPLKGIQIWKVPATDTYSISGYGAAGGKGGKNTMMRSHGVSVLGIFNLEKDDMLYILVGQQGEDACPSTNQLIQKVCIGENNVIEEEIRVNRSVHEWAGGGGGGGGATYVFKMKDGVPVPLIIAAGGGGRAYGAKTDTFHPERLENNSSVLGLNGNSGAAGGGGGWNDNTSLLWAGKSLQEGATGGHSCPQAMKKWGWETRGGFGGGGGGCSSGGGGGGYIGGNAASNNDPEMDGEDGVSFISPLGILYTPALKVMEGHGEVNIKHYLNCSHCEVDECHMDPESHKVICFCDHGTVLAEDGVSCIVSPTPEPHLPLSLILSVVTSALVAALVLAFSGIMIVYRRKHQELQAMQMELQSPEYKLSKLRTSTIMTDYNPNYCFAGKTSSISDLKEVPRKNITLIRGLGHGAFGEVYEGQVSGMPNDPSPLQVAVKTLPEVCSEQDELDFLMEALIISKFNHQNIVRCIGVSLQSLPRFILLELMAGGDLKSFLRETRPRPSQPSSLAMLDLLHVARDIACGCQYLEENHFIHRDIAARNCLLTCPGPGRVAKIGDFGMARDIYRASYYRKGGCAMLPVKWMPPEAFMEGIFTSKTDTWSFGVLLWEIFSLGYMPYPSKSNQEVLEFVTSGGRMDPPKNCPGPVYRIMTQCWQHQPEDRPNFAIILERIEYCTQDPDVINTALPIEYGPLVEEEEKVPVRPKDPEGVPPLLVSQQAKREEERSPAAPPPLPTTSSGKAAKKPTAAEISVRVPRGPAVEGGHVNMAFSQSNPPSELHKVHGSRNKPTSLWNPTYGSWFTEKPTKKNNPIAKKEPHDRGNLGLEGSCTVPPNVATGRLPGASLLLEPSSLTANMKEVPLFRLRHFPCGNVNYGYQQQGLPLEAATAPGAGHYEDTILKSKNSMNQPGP

[25] = tested on: MDA-MB-231; assay: Induction of cell cycle arrest in human MDA-MB-231 cells assessed as S phase cells at 100 nM incubated for 24 hrs by PI staining based flow cytometric analysis (reference value: 9.64 to 10.79%); assay type: functional
[26] = tested on: MDA-MB-231; assay: Induction of cell cycle arrest in human MDA-MB-231 cells assessed as accumulation of cell at G2/M phase at 100 nM incubated for 24 hrs by PI staining based flow cytometric analysis (reference value: 24.34 to 24.44%); assay type: functional
[27] = tested on: MDA-MB-231; assay: Induction of cell cycle arrest in human MDA-MB-231 cells assessed as G0/G1 phase cells at 100 nM incubated for 24 hrs by PI staining based flow cytometric analysis (reference value: 63.32 to 64.94%); assay type: functional
[28] = tested on: MDA-MB-231; assay: Induction of cell cycle arrest in human MDA-MB-231 cells assessed as G0/G1 phase cells at 33.3 nM incubated for 24 hrs by PI staining based flow cytometric analysis (reference value: 63.32 to 64.94%); assay type: functional
[29] = tested on: MDA-MB-231; assay: Inhibition of migration in human MDA-MB-231 cells at 3.7 to 100 nM incubated for 18 hrs by transwell assay; assay type: functional, cell-based; conditions: dose 3.7-100 nM
[30] = tested on: MDA-MB-231; assay: Antiproliferative activity against human MDA-MB-231 cells expressing AXL assessed as inhibition of cell growth incubated for 72 hrs by CCK8 assay; assay type: functional, cell-based; conditions: MDA-MB-231, 72 h
[31] = tested on: MDA-MB-231; assay: Induction of apoptosis in human MDA-MB-231 cells assessed as late apoptotic cells at 100 nM incubated for 48 hrs by Annexin V-PE staining based flow cytometric analysis (reference value: 0.32 to 0.82%); assay type: functional
[32] = tested on: MDA-MB-231; assay: Induction of apoptosis in human MDA-MB-231 cells assessed as necrotic cells at 300 nM incubated for 48 hrs by Annexin V-PE staining based flow cytometric analysis (reference value: 2.64 to 3.23%); assay type: functional
[33] = Antitumor activity against patient-derived breast cancer organoid assessed as reduction in cell viability incubated for 120 hrs by CellTiter-Glo 3D assay; assay type: functional, tissue-based; conditions: Homo sapiens
[34] = species: Homo sapiens; assay: Antitumor activity against patient-derived breast cancer organoid assessed as phenotypic change at 5 uM incubated for 120 hrs by bright-field imaging microscopic analysis; assay type: functional, tissue-based

**Q.** Which Activity [1] does the source give for `CCc1ccc2c(c1)c(=O)c(C(=O)Nc1ccc(Oc3ncnc4cc(OC)c(OC)cc34)c(F)c1)c(C)n2C` here?
**A.** 3.01%

**Q.** What about the Activity [2] of the same molecule?
**A.** 27.64%

**Q.** What about the Activity [3] of the same molecule?
**A.** inactive

**Q.** What about the Activity [4] of the same molecule?
**A.** 0.15%

**Q.** And the inhibition [5]?
**A.** Active

**Q.** And the IC50 [6]?
**A.** > 5 µM

**Q.** What about the Activity [7] of the same molecule?
**A.** inactive

**Q.** What about the Activity [8] of the same molecule?
**A.** 12.03%

**Q.** And the Activity [9]?
**A.** 1.99%

**Q.** And the Activity [10]?
**A.** 3.11%

**Q.** And the Activity [11]?
**A.** inactive

**Q.** What about the viability at 0.3 µM [12] of the same molecule?
**A.** 95.1%

**Q.** What about the Activity [13] of the same molecule?
**A.** 0.29%

**Q.** And the viability at 0.1 µM [14]?
**A.** 94.6%

**Q.** And the inhibition [15]?
**A.** inactive

**Q.** What about the Activity [16] of the same molecule?
**A.** 9.32%

**Q.** And the Activity [17]?
**A.** 26.91%

**Q.** What about the Activity [18] of the same molecule?
**A.** 3.02%

**Q.** What about the Activity [19] of the same molecule?
**A.** 61.26%

**Q.** What about the viability at 0.0333 µM [20] of the same molecule?
**A.** 94.9%

**Q.** What about the IC50 [21] of the same molecule?
**A.** > 5 µM

**Q.** And the Activity [22]?
**A.** inactive

**Q.** What about the Activity [23] of the same molecule?
**A.** 1.8%

**Q.** What about the IC50 [24] of the same molecule?
**A.** 0.00492 µM

**Q.** And the Activity [25]?
**A.** 16.56%

**Q.** And the Activity [26]?
**A.** 24.87%

**Q.** What about the Activity [27] of the same molecule?
**A.** 52.76%

**Q.** And the Activity [28]?
**A.** 56.88%

**Q.** And the inhibition [29]?
**A.** inactive

**Q.** What about the IC50 [30] of the same molecule?
**A.** > 5 µM

**Q.** What about the Activity [31] of the same molecule?
**A.** 0.41%

**Q.** What about the Activity [32] of the same molecule?
**A.** 1.66%

**Q.** Which results are given for `CC(=O)O[C@H]1C(=O)[C@@]2(C)[C@H]([C@H](OC(=O)c3ccccc3)[C@]3(O)C[C@H](OC(=O)[C@H](O)[C@@H](NC(=O)c4ccccc4)c4ccccc4)C(C)=C1C3(C)C)[C@]1(OC(C)=O)CO[C@@H]1C[C@@H]2O` [PACLITAXEL]?
**A.** IC50 [33]: > 5 µM; Activity [34]: inactive
